Test results published in patent US9296745B2, “Diacylglycerol acyltransferase 2 inhibitors” (Pfizer Inc., priority 2012, dated 2016).
Structures can show the parent of a compound that is named as a salt. Where two headings read alike, the source gives them in different places.

Molecular target: Human DGAT2 (hDGAT2) (Homo sapiens (Human), UniProt Q96PD7)
Experiment: In vitro DGAT2 assay, IC50 determination with hDGAT2 membrane fraction
Type: biochemical
Conditions: read-out: DGAT2 IC50
Summary of the method: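 CHAPS-solubilized membrane fraction of FLAG-tagged hDGAT2 from baculovirus-infected SF9 cells (0.01 mg/mL) in 100 mM Hepes-NaOH pH 7.4, 20 mM MgCl2, 200 nM methyl arachidonyl fluorophosphonate; compounds pre-incubated 20 min with 0.04% BSA. Reaction 40 min at room temperature, stopped with H3PO4. [^14C]tridecanoylglycerol in organic phase counted; 11-point geometric mean IC50.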

[1] = geometric mean, background for complete inhibition of DGAT2 obtained with 50 μM (1R,2R)-2-({3′-Fluoro-4′-[(6-fluoro-1,3-benzothiazol-2-yl)amino]-1,1′-biphenyl-4-yl}carbonyl)cyclopentanecarboxylic acid

Human DGAT2 (hDGAT2), sequence (Q96PD7 whole entry): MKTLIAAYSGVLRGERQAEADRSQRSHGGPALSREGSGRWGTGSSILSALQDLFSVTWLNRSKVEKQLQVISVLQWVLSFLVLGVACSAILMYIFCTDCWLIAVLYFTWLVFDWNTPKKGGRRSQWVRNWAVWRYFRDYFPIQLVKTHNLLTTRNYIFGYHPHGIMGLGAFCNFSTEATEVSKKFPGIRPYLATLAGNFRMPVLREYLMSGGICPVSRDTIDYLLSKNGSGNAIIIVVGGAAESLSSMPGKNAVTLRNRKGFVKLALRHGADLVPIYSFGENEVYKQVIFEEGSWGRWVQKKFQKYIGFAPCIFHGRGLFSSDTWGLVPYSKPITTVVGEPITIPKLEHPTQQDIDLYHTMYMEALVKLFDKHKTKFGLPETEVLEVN

IC50 [1] | Compound | further results
37.5 nM | O=C([C@@H]1CCCN(c2ccc3nc(-c4cncc(C5CC5)c4)[nH]c3n2)C1)N1CCCC1 [Example 183, (R)-(1-(2-(5-Cyclopropylpyridin-3-yl)-3H-imidazo[4,5-b]pyridin-5-yl)piperidin-3-yl)(pyrrolidin-1-yl)methanone] | 
15.2 nM | O=C([C@@H]1CCCN(c2ccc3nc(-c4cccc(C5CC5)n4)[nH]c3n2)C1)N1CCC(F)(F)C1 [Example 184, (R)-(1-(2-(6-Cyclopropylpyridin-2-yl)-3H-imidazo[4,5-b]pyridin-5-yl)piperidin-3-yl)(3,3-difluoropyrrolidin-1-yl)methanone] | 
231 nM | CCN(C)C(=O)[C@@H]1CCCN(c2ccc3nc(-c4ccnc(C5CC5)n4)[nH]c3n2)C1 [Example 185, (R)-1-(2-(2-Cyclopropylpyrimidin-4-yl)-3H-imidazo[4,5-b]pyridin-5-yl)-N-ethyl-N-methylpiperidine-3-carboxamide] | 
162 nM | O=C([C@H]1CN(c2ccc3nc(-c4cccc(C5CC5)n4)[nH]c3n2)CCO1)N1CCOCC1 [Example 186, (R)-(4-(2-(6-Cyclopropylpyridin-2-yl)-3H-imidazo[4,5-b]pyridin-5-yl)morpholin-2-yl)(morpholino)methanone] | 
10.5 nM | O=C([C@@H]1CCCN(c2ncc3nc(-c4cccc(C(F)(F)F)n4)[nH]c3n2)C1)N1CCCC1 [Example 187, (R)-Pyrrolidin-1-yl(1-(8-(6-(trifluoromethyl)pyridin-2-yl)-9H-purin-2-yl)piperidin-3-yl)methanone] | 
31.4 nM | CC(C)(c1nc2ccc(N3CCC[C@@H](C(=O)N4CCCC4)C3)nc2[nH]1)n1cc(Cl)cn1 [Example 188] | 
34.1 nM | CSc1cnn(C2(c3nc4ccc(N5CCC[C@@H](C(=O)N6CCCC6)C5)nc4[nH]3)CC2)c1 [Example 189, (R)-(1-(2-(1-(4-(Methylthio)-1H-pyrazol-1-yl)cyclopropyl)-3H-imidazo[4,5-b]pyridin-5-yl)piperidin-3-yl)(pyrrolidin-1-yl)methanone] | 
101 nM | COc1cnn(C2(c3nc4ccc(N5CCC[C@@H](C(=O)N6CCCC6)C5)nc4[nH]3)CC2)c1 [Example 194, (R)-(1-(2-(1-(4-Methoxy-1H-pyrazol-1-yl)cyclopropyl)-3H-imidazo[4,5-b]pyridin-5-yl)piperidin-3-yl)(pyrrolidin-1-yl)methanone] | 
142 nM | O=C([C@@H]1CCCN(c2ccc3nc(C4(c5coc(C6CC6)n5)CC4)[nH]c3n2)C1)N1CCCC1 [Example 195, (R)-(1-(2-(1-(2-cyclopropyloxazol-4-yl)cyclopropyl)-3H-imidazo[4,5-b]pyridin-5-yl)piperidin-3-yl)(pyrrolidin-1-yl)methanone] | 
 | C[C@@H](c1nc2ccc(N3CCC[C@@H](C(=O)N4CCCC4)C3)nc2[nH]1)n1cc(Cl)cn1 [Example 196-B, ((R)-1-(2-((S)-1-(4-Chloro-1H-pyrazol-1-yl)ethyl)-3H-imidazo[4,5-b]pyridin-5-yl)piperidin-3-yl)(pyrrolidin-1-yl)methanone hydrochloride] | IC50 (geometric mean, background for complete inhibition of DGAT2 obtained with 50 μM (1R,2R)-2-({3′-Fluoro-4′-[(6-fluoro-1,3-benzothiazol-2-yl)amino]-1,1′-biphenyl-4-yl}carbonyl)cyclopentanecarboxylic acid, hydrochloride): 38.5 nM
74.2 nM | O=C([C@@H]1CCCN(c2ccc3nc(C4(n5cc(Cl)cn5)CC4)[nH]c3n2)C1)N1CC(F)(F)C1 [Example 200, (R)-(1-(2-(1-(4-Chloro-1H-pyrazol-1-yl)cyclopropyl)-3H-imidazo[4,5-b]pyridin-5-yl)piperidin-3-yl)(3,3-difluoroazetidin-1-yl)methanone] | 
91 nM | C[C@@H]1CCCN1C(=O)[C@@H]1CCCN(c2ccc3nc(C4(n5cc(Cl)cn5)CC4)[nH]c3n2)C1 [Example 201, ((R)-1-(2-(1-(4-Chloro-1H-pyrazol-1-yl)cyclopropyl)-3H-imidazo[4,5-b]pyridin-5-yl)piperidin-3-yl)((R)-2-methylpyrrolidin-1-yl)methanone] | 
321 nM | C[C@H]1CCCN1C(=O)[C@@H]1CCCN(c2ccc3nc(C4(n5cc(Cl)cn5)CC4)[nH]c3n2)C1 [Example 202, ((R)-1-(2-(1-(4-Chloro-1H-pyrazol-1-yl)cyclopropyl)-3H-imidazo[4,5-b]pyridin-5-yl)piperidin-3-yl)((S)-2-methylpyrrolidin-1-yl)methanone] | 
176 nM | O=C([C@@H]1CCCN(c2ccc3nc(C4(c5cnccn5)CC4)[nH]c3n2)C1)N1CCCC1 [Example 203, (R)-(1-(2-(1-(Pyrazin-2-yl)cyclopropyl)-3H-imidazo[4,5-b]pyridin-5-yl)piperidin-3-yl)(pyrrolidin-1-yl)methanone] | 
656 nM | O=C([C@@H]1CCCN(c2ccc3nc(C4(c5ncccn5)CC4)[nH]c3n2)C1)N1CCCC1 [Example 204, (R)-(1-(2-(1-(Pyrimidin-2-yl)cyclopropyl)-3H-imidazo[4,5-b]pyridin-5-yl)piperidin-3-yl)(pyrrolidin-1-yl)methanone] | 
188 nM | O=C([C@@H]1CCCN(c2ccc3nc(C4(n5cc(Cl)cn5)CC4)[nH]c3n2)C1)N1CCC1 [Example 205, (R)-Azetidin-1-yl(1-(2-(1-(4-chloro-1H-pyrazol-1-yl)cyclopropyl)-3H-imidazo[4,5-b]pyridin-5-yl)piperidin-3-yl)methanone] | 
246 nM | O=C([C@@H]1CCCN(c2ccc3nc(C4(n5cc(Cl)cn5)CC4)[nH]c3n2)C1)N1CCOCC1 [Example 206, (R)-(1-(2-(1-(4-Chloro-1H-pyrazol-1-yl)cyclopropyl)-3H-imidazo[4,5-b]pyridin-5-yl)piperidin-3-yl)(morpholino)methanone] | 
702 nM | C[C@@H]1CCN(c2ncc3nc(C4(n5cccn5)CC4)[nH]c3n2)C[C@@H]1C(=O)N1CCCC1 [Example 207, ((3R,4R)-1-(8-(1-(1H-Pyrazol-1-yl)cyclopropyl)-9H-purin-2-yl)-4-methylpiperidin-3-yl)(pyrrolidin-1-yl)methanone] | 
 | C[C@H]1CCN(c2ncc3nc(C4(n5cccn5)CC4)[nH]c3n2)C[C@H]1C(=O)N1CCCC1 [Example 208, ((3S,4S)-1-(8-(1-(1H-pyrazol-1-yl)cyclopropyl)-9H-purin-2-yl)-4-methylpiperidin-3-yl)(pyrrolidin-1-yl)methanone] | IC50: 37400 nM
342 nM | O=C([C@@H]1CCCN(c2ncc3nc(C4(n5cccn5)CC4)[nH]c3n2)C1)N1CCCC1 [Example 210, (R)-(1-(8-(1-(1H-Pyrazol-1-yl)cyclopropyl)-9H-purin-2-yl)piperidin-3-yl)(pyrrolidin-1-yl)methanone] | 
845 nM | O=C(Nc1ccc(C(F)(F)F)nc1)c1nc2ccc(N3CCC[C@@H](C(=O)N4CCCC4)C3)nc2[nH]1 [Example 211, (R)-5-(3-(Pyrrolidine-1-carbonyl)piperidin-1-yl)-N-(6-(trifluoromethyl)pyridin-3-yl)-3H-imidazo[4,5-b]pyridine-2-carboxamide] | 
18.9 nM | O=C([C@@H]1CCCN(c2ccc3nc(C4(n5cc(Cl)cn5)CC4)[nH]c3n2)C1)N1CC=CC1 [Example 212, (R)-(1-(2-(1-(4-Chloro-1H-pyrazol-1-yl)cyclopropyl)-3H-imidazo[4,5-b]pyridin-5-yl)piperidin-3-yl)(2,5-dihydro-1H-pyrrol-1-yl)methanone] | 
161 nM | O=C([C@H]1CN(c2ncc3nc(C4(n5cc(Cl)cn5)CC4)[nH]c3n2)CCO1)N1CCCC1 [Example 213, (R)-(4-(8-(1-(4-Chloro-1H-pyrazol-1-yl)cyclopropyl)-9H-purin-2-yl)morpholin-2-yl)(pyrrolidin-1-yl)methanone] | 
396 nM | O=C([C@@H]1CCCN(c2ccc3nc(C4(n5nccn5)CC4)[nH]c3n2)C1)N1CCCC1 [Example 214, (R)-(1-(2-(1-(2H-1,2,3-Triazol-2-yl)cyclopropyl)-3H-imidazo[4,5-b]pyridin-5-yl)piperidin-3-yl)(pyrrolidin-1-yl)methanone] | 
483 nM | O=C([C@@H]1CCCN(c2ccc3nc(C4(n5ccnc5)CC4)[nH]c3n2)C1)N1CCCC1 [Example 215, (R)-(1-(2-(1-(1H-Imidazol-1-yl)cyclopropyl)-3H-imidazo[4,5-b]pyridin-5-yl)piperidin-3-yl)(pyrrolidin-1-yl)methanone] | 
9200 nM | C[C@H]1CC[C@@H](C(=O)N2CCCC2)CN1c1ccc2nc(C3(n4cc(Cl)cn4)CC3)[nH]c2n1 [Example 216, ((3R,6S)-1-(2-(1-(4-Chloro-1H-pyrazol-1-yl)cyclopropyl)-3H-imidazo[4,5-b]pyridin-5-yl)-6-methylpiperidin-3-yl)(pyrrolidin-1-yl)methanone] | 
 | C[C@@H]1CC[C@H](C(=O)N2CCCC2)CN1c1ccc2nc(C3(n4cc(Cl)cn4)CC3)[nH]c2n1 [Example 217, ((3S,6R)-1-(2-(1-(4-chloro-1H-pyrazol-1-yl)cyclopropyl)-3H-imidazo[4,5-b]pyridin-5-yl)-6-methylpiperidin-3-yl)(pyrrolidin-1-yl)methanone] | IC50: 131 nM
270 nM | O=C([C@@H]1CCCN(c2ccc3nc(-c4ccnc(C5CC5)n4)[nH]c3n2)C1)N1CCC1 [Example 220, (R)-Azetidin-1-yl(1-(2-(2-cyclopropylpyrimidin-4-yl)-3H-imidazo[4,5-b]pyridin-5-yl)piperidin-3-yl)methanone] | 
290 nM | CN(CC1CC1)C(=O)[C@@H]1CCCN(c2ccc3nc(-c4ccnc(C5CC5)n4)[nH]c3n2)C1 [Example 221, (R)—N-(Cyclopropylmethyl)-1-(2-(2-cyclopropylpyrimidin-4-yl)-3H-imidazo[4,5-b]pyridin-5-yl)-N-methylpiperidine-3-carboxamide] | 
531 nM | O=C([C@@H]1CCCN(c2ccc3nc(C4(c5cccnn5)CC4)[nH]c3n2)C1)N1CCCC1 [Example 222, (R)-(1-(2-(1-(Pyridazin-3-yl)cyclopropyl)-3H-imidazo[4,5-b]pyridin-5-yl)piperidin-3-yl)(pyrrolidin-1-yl)methanone] | 
